Where a name gives a salt, the structure may show the parent alone. Read-outs that look alike come from different tables or passages of the source.
Experiments:
in vitro = details: human, kb cells
Influenza AoPR/8 = assay type: in vivo, ddY male mice; details: subcutaneous, from 3 hours pre to 150 hours post infection, LLS 7 days after infection, Control (0 mg/kg) 4.8
influenza viruses = details: British Pat. No. 1,063,366; SCIENCE, Vol. 144, 862, (1964); cited from earlier work
Newcastle diseases virus = details: Koji Aigami et al., J. of Medicinal Chemistry, Vol. 19, 536 (1976); cited from earlier work

| Structure (SMILES) | MCC at 72 h (in vitro) [µg/mL] | Lung Lesion Score (Influenza AoPR/8; 15 mg/kg) | further results |
| --- | --- | --- | --- |
| CCOCC(=O)NC12CCCC3CC(CCC31)C2 (centres unmarked) [N-[3-(4-homoisotwistyl)]-2-ethoxyacetamide] | 25 | – | – |
| CN(C)CCOCC(=O)N(C)C12CCCC3CC(CCC31)C2 (centres unmarked) [N-methyl, N-[3-(4-homoisotwistyl)]-2-(2-dimethylaminoethoxy) acetamide hydrochloride] | – | 4.50 | – |
| NC12CC3CC(CC(C3)C1)C2 [1-adamantanamine] | – | – | antiviral activity against influenza viruses (influenza viruses): show antiviral against influenza viruses |
| O=C(COc1ccccc1)NC12CCCC3CC(CCC31)C2 (centres unmarked) [N-[3-(4-homoisotwistyl)]-2-phenoxyacetamide] | – | 4.35 | – |
| CCCCCCCCCCCOCC(=O)NC12CCCC3CC(CCC31)C2 (centres unmarked) [N-[3-(4-homoisotwistyl)]-2-undecyloxyacetamide] | 10 | – | – |
| NC12CCCC3CC(CCC31)C2 (centres unmarked) [3-amino-4-homoisotwistane hydrochloride] | – | – | antiviral activity against Newcastle diseases virus (Newcastle diseases virus): have antiviral activity against Newcastle diseases virus |
| CN(C)CCOCC(=O)NC12CCCC3CC(CCC31)C2 (centres unmarked) [N-[3-(4-homoisotwistyl)]-2-(2-dimethylaminoethoxy)-acetamide hydrochloride] | 250 | 4.33 | – |
| CCCCCOCC(=O)NC12CCCC3CC(CCC31)C2 (centres unmarked) [N-[3-(4-homoisotwistyl)]-2-pentyloxyacetamide] | 5 | – | – |
| NC12CC3CC(CC(C3)C1)C2 [Amantadine hydrochloride, reference compound] | > 50 | – | Lung Lesion Score (Influenza AoPR/8; 10 mg/kg): 4.3 |

Reference: patent US4318925A (priority 1977, dated 1982)
